Test results reported in paper PMC10447463, “Data-mining unveils structure–property–activity correlation of viral infectivity enhancing self-assembling peptides” (Nature Communications, 2023).
Read-outs that look alike come from different tables or passages of the source.

How the values were obtained:
[1] = Turbidity, derived count rate of scattered light; format: physicochemical; details: for Count Rate: derived count rate of scattered light (turbidity); for Log10 Count Rate: turbidity, derived count rate of scattered light, data of Figure 2D
[2] = β-sheet content by ATR-FT-IR; format: physicochemical; details: Fig. S7 panel A; β-sheet content by ATR-FT-IR
Summary of the method: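 Fluorescence at 470 nm (365 nm excitation) was read 20 min after adding fluorescamine to DMSO-dissolved filtrate and unfiltered PNF, then CR computed as 100 − 100 × filtrate/original. Secondary structure came from ATR FT-IR spectra of lyophilized PNF powder.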

[3] = system: HIV-1 infection of TZM-bl cells; assay: HIV-1 infectivity enhancement assay, β-galactosidase luminescence; format: cell-based; details: for Rel-EFC / Log10 Infection Rel EFC: 1.3 µM peptide; for Rel-EFC: infection relative to EF-C (QCKIKQIINMWQ = 1); for Log10 Infection Rel EFC: log10 of infection relative to EF-C; for Log Infectivity: Fig. S7 panel A (plotted against β-sheet content), Log10 infection relative to EF-C, TZM-bl cells, asymmetric std dev errors; for Log10 Infection Rel EF-C: HIV-1 infection of TZM-bl cells; for Log10 Inf. rel. to EF-C: log10 of HIV-1 infection of TZM-bl cells relative to EF-C (EF-C = 0); for Log10 of Rel to EFC (Feb2021): Log10 of infection relative to EF-C, all peptides of FigS16; for Abs. Inf.: absolute infection signal, HIV-1 on TZM-bl cells, β-galactosidase luminescence
[4] = format: physicochemical; parameters: key to Fibril / Fibril Formation / TEM 2cat / Fibril: 1 = fibrils present; 0 non-fibrillar structures; details: for Fibril / Fibril / Fibril Formation: TEM; for Fibril / Fibril Formation: 1 mg/mL, uranyl acetate stain, qualitative
[5] = Zeta-potential measurement; format: physicochemical
Summary of the method: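 Peptides diluted from DMSO stock into PBS pH 7.4 to 1 mg/mL and aged 1 d at RT, then diluted into 1 mM aqueous KCl. Zeta potential derived from electrophoretic mobility via Smoluchowski; triplicates, averaged over two independent experiments.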

[6] = Log10 of infection rate relative to EF-C, Figure 3A source data
[7] = infection rate relative to EF-C, log10, data of Figure 2D
[8] = infection rate relative to EF-C, log10, source data of Figure 2C
[9] = FigS12 panel A, fibril category by TEM
[10] = 1 = fibrils present, 0 = non-fibrillar
[11] = 1 = fibrils present, 0 = non-fibrillar structures
[12] = zeta potential of peptide assemblies
[13] = zeta-potential of peptide, source data of Figure 2C
[14] = zeta-potential of the peptide assemblies, mean, Figure 3A source data
[15] = category: fibrils present or non-fibrillar

Substance | Count Rate [1] | Log10 Count Rate [1] | b -sheet / % [2] | Rel-EFC [3] | Log10 Infection Rel EFC [3] | Log Infectivity [3] | Log10 Infection Rel EF-C [3, 6] | Log10 Infection Rel EF-C [3, 7] | Log10 Infection Rel EF-C [3, 8] | Log10 Inf. rel. to EF-C [3] | TEM 2cat ([4]; Fig S10 panel D) | TEM 2cat [4, 9] | Fibril ([4]; FigS12 panel B) | Fibril / Fibril Formation [4] | Fibril [4, 10] | Fibril [4, 11] | Zeta-Potential / mV [5, 13] | Zeta-Potential / mV [5, 14] | Abs. Inf. [3] | Zeta-Pot. [5] | other results
EIEIEIEI | 538.4 | 2.731 | 62.61% | 0,02 | -1,75 | -1.748 | -1.75 | -1.748 | -1.748 | -1.748 | 1 | 1 | 1 | 1 | 1 | 1 | -7.535 mV | -8.92 mV | – | – | Zeta-Pot. [5, 12]: -8.92
KIKIQINMW | 239.6 | 2.38 | 45.5% | 2,16 | 0,33 | 0.3339 | 0.33 | 0.3339 | 0.3339 | 0.3339 | 1 | – | – | 1 | 1 | 1 | 17.12 mV | 19.7 mV | – | – | Log10 of Rel to EFC (Feb2021) [3]: 0.33; TEM 2cat [4, 15]: 1; Zeta-Pot. [5, 12]: 19.7
QCKIKQII | 301 | 2.479 | 40.51% | 0,01 | -2,19 | -2.189 | -2.19 | -2.189 | -2.189 | -2.189 | 1 | 1 | 1 | 1 | 1 | 1 | 9.183 mV | 11 mV | 206.7 | 11 | –
HHHHEIEIEIEI | 103.3 | 2.014 | 48.37% | 0,03 | -1,53 | -1.534 | -1.53 | -1.534 | -1.534 | – | 0 | 0 | 0 | 0 | 0 | 0 | -6.272 mV | -6.91 mV | – | – | Zeta-Pot. [5, 12]: -6.91
KKFQKKFQ | 73.6 | 1.867 | 40.421% | 0,03 | -1,54 | -1.545 | -1.54 | -1.545 | -1.545 | -1.545 | 0 | 0 | 0 | 0 | 0 | 0 | -6.175 mV | -9.19 mV | 423.3 | -9.19 | –
KVKVKVQV | 94.37 | 1.975 | 43.06% | 0,02 | -1,76 | -1.763 | -1.76 | -1.763 | -1.763 | -1.763 | 0 | 0 | 0 | 0 | 0 | 0 | -0.6533 mV | -3.41 mV | 466.7 | -3.41 | –
KIKIQINMAQ | 5859 | 3.768 | 45.78% | 0,21 | -0,67 | -0.6722 | -0.67 | -0.6722 | -0.6722 | -0.6722 | 1 | – | – | 1 | 1 | 1 | 6.27 mV | 3.07 mV | – | – | Log10 of Rel to EFC (Feb2021) [3]: -0.67; TEM 2cat [4, 15]: 1; Zeta-Pot. [5, 12]: 3.07
KIRGKFEKED | 214.4 | 2.331 | 28.67% | 0,06 | -1,24 | -1.2355 | -1.24 | -1.2355 | -1.2355 | -1.2355 | 0 | 0 | 0 | 0 | 0 | 0 | -7.197 mV | -12.7 mV | 643.3 | -12.7 | –
NMWQKFKFQF | 14045.43333 | 4.148 | 33.22% | 0,27 | -0,57 | -0.5672 | -0.57 | -0.5672 | -0.5672 | -0.5672 | 1 | – | – | 1 | 1 | 1 | 10.63 mV | 9.56 mV | 7323 | 9.56 | Log10 of Rel to EFC (Feb2021) [3]: -0.57; TEM 2cat [4, 15]: 1
RPRGLLLGNLR | 210.1 | 2.322 | 13.82% | 0,05 | -1,32 | -1.3163 | -1.32 | -1.3163 | -1.3163 | -1.3163 | 0 | 0 | 0 | 0 | 0 | 0 | -5.002 mV | -8.15 mV | 716.7 | -8.15 | –
QCKIKIQI | 12426.83333 | 4.094 | 35.27% | 0,11 | -0,95 | -0.9508 | -0.95 | -0.9508 | -0.9508 | -0.9508 | 1 | – | – | 1 | 1 | 1 | 10.99 mV | 9.52 mV | 3577 | 9.52 | Log10 of Rel to EFC (Feb2021) [3]: -0.95; TEM 2cat [4, 15]: 1
NMWQKAKAQA | 242.2 | 2.384 | 37.34% | 0,04 | -1,38 | -1.376 | -1.38 | -1.376 | -1.376 | -1.376 | 1 | 1 | 1 | 1 | 1 | 1 | -4.582 mV | -5.56 mV | 1137 | -5.56 | –
KYKYQY | 31.53 | 1.499 | 0% | 0,01 | -1,99 | -1.9887 | -1.99 | -1.9887 | -1.9887 | – | 0 | 0 | 0 | 0 | 0 | 0 | -3.008 mV | -4.2 mV | – | – | Zeta-Pot. [5, 12]: -4.2
